# Test results as given in patent US9642874B2, “Compositions of selenoorganic compounds and methods of use thereof” (Alltech, Inc., priority 2014, dated 2017).
# Assays:
# [1] = tested on: primary mouse hepatocytes; assay: Glucose production in primary mouse hepatocytes (glucose in culture media); format: cell-based; settings: for 8-CPT/Dex-stimulated glucose production: serum-free; for 8-CPT/Dex-stimulated glucose production / decrease of glucose production: 6 hours
# Protocol: (§1) The overnight-acclimated hepatocytes were washed twice with PBS (to remove any residual FBS and other additives in the TRL hepatocyte maintenance medium, pretreated with control (water) or selenium Compounds CDE (150 or 300 ppb of each selenium compound) in DMEM/F12 media supplemented with 10% fetal bovine serum (FBS) for 24 hr. These cells were then washed twice with PBS and incubated with the same dose of selenium Compounds CDE (150 or 300 ppb) in the presence or absence of insulin (10 or 100 nM, Sigma), 0.1 mM 8-CPT (Sigma) or 0.5 μM Dex (Sigma) in serum-free and glucose-free DMEM media (Invitrogen) supplemented with 20 mM lactose (Sigma) and 2 mM pyruvate (Sigma) and 15 mM HEPES (Sigma) for another 6 hours. After treatments, cell media were collected and subjected to glucose assay and toxicological studies of lactate dehydrogenase (LDH) and cells were collected for RNA and protein analysis.
# For the studies of Compounds CDE on primary mouse hepatocytes under totally serum-free culture conditions, hepatocytes were acclimated in hepatocyte maintenance medium (TRL) for 8 hours, washed twice with PBS (to remove any residual FBS and other additives in the culture dish) and then starved in serum-free DMEM/F12 media overnight. Some of these serum-starved hepatocytes were treated with control (water), selenium compounds (150 or 300 ppb of each compound) in the presence or absence of insulin (10 or 100 nM), 0.1 mM 8-CPT (Sigma) or 0.5 μM Dex (Sigma) in serum-free and glucose/phenol red-free DMEM media supplemented with 20 mM lactose and 2 mM pyruvate and 15 mM HEPES for 6 hours. After 6 hours treatment, culture media were collected for glucose analysis and toxicological studies monitoring LDH activity and cultured cells were isolated for protein analysis. In addition, some serum-starved hepatocytes were treated with Compounds CDE (300 ppb of each compound) in plain DMEM/F12 media for 0, 5, 30, 60, 120 and 180 min and cells were collected for the time-course protein analysis of various signaling molecules.
# Cell culture media from the above described treatments were collected and centrifuged at 300×g for 5 minutes to remove any potential dislodged hepatocytes and subjected to glucose analysis using a colormetric glucose assay kit (Abcam) according to the manufacturer protocol. The absorbance at OD570 nm in the samples and various concentrations of glucose standards were determined by the Bio-Tek microplate reader, and glucose concentration in the medium of each sample was obtained from the glucose standard curve, and then normalized by its protein level in attached cells which were determined using the Pierce Micro-BCA protein assay kit (Thermo Scientific-Piece Biotechnology, Rockford, Ill.) according to the manufacturer's protocol. Glucose levels in each treatment group were divided by the mean level in control group (without the treatments of Compounds CDE, insulin, 8-CPT and Dex) to obtain the relative glucose level. Data are presented as Mean±SEM of 3-4 samples.
# Similar to the studies on AML-12 cells, primary mouse hepatocytes were pretreated with a control (water) or 150 ppb and 300 ppb doses of selenium Compounds CDE in serum-containing DMEM/F12 media for 24 hours. This treatment was followed by retreatments with these selenium compounds in the presence or absence of insulin (10 and 100 nM) or insulin alone for 6 hours. […]
# PDK1 = assay: Western blot of pPdk1 in primary mouse hepatocytes; format: cell-based; settings: 100 nM insulin 6 hours, or Compounds CDE both doses 24 hours + 6 hours
# Protocol: as §1, with “After treatments, cell media were collected and subjected to glucose assay and toxicological studies of lactate dehydrogenase (LDH) and cells were collected for RNA and protein analysis.” left out
# After the above described treatments, primary mouse hepatocytes were rinsed with ice-cold PBS and lysed in the ice-cold RIPA buffer containing complete proteinase and phosphatase inhibitors (Thermo-Fisher Scientific, Waltham, Mass.) on ice for 30 min Cell lysates were collected using a cell scraper and transfer pipette and then centrifuged at 12000×g for 30 min at 4° C. to remove the DNA pellet and obtain the protein extract. Protein levels in the supernatant of these cell lysates were determined using the Pierce Micro-BCA protein assay kit (Thermo Scientific-Piece Biotechnology, Rockford, Ill.) according to the manufacturer's protocol. […]
substance,measurement,setting,value
"insulin: insulin (10 or 100 nM, Sigma) used as comparator and cotreatment",8-CPT/Dex-stimulated glucose production,[1]; 10 nM insulin,significantly inhibited glucose production
same,8-CPT/Dex-stimulated glucose production,[1]; 100 nM insulin,only a trend of decreased glucose production
same,8-CPT/Dex-induced glucose production,"[1]; insulin 10 and 100 nM, vs 8-CPT/Dex group",significantly decreased 8-CPT/Dex-induced glucose production
same,decrease of glucose production,"[1]; insulin alone at 10 nM and 100 nM, vs water-treated control",25-30%
same,decrease of glucose production,"[1]; insulin alone, both doses (10, 100 nM), serum-starved, serum-free media",40-47%
same,pPdk1 protein level (in words),PDK1,significant increase
